Source: patent US11503827B2, “Stabilized chemical composition” (priority 2010, dated 2022)

Assay: Dissolution of active ingredient in liquid epoxy resin mixture, by inspection
Type: physicochemical
Details: 1.0-1.5 g AI in 8 g 635 Thin Epoxy Resin and 4 g 556 2:1 Epoxy Hardener
Procedure: Nine different individual resin mixtures were prepared by mixing together 8 g 635 Thin Epoxy Resin, 4 g 556 2:1 Epoxy Hardener and between 1.0 and 1.5 g of the following finely milled active ingredients: atrazine, azoxystrobin, bicylopyrone, cyproconazole, difenoconazole, mesotrione, prodiamine, thiabendazole, thiamethoxam. […] The samples were placed on a platform shaker overnight at room temperature and then examined by light microscopy. In every case the presence of a dispersion of epoxy resin particles of diameter approximately 100 microns was confirmed. Crystals of the active ingredient were visible inside the epoxy particles under polarized light, except that in the cases of bicyclopyrone and mesotrione individual crystals were not visible as these active ingredients had dissolved in the epoxy resin—in these cases the entire epoxy resin particle was slightly birefringent indicating the presence of crystal domains within the matrix.

Compound | dissolution of active ingredient in the liquid resin
COCCOCc1nc(C(F)(F)F)ccc1C(=O)C1=C(O)C2CCC(C2)C1=O (stereo not drawn) [bicylopyrone] | fully dissolved
CC(C1CC1)C(O)(Cn1cncn1)c1ccc(Cl)cc1 (stereo not drawn) [cyproconazole] | most of the cyproconazole was dissolved
CS(=O)(=O)c1ccc(C(=O)C2C(=O)CCCC2=O)c([N+](=O)[O-])c1 [mesotrione] | fully dissolved
